The text below walks through data of US20250281453A1, “COMBINATION THERAPIES COMPRISING QTX125” (QUIMATRYX, S.L., priority 2022, published 2025).

Assay type in all cases: cell-based
Series [1] has as its system HCT-116 colonic cancer cells. Briefly: Cell viability, ALAMAR blue assay, monotherapy. The settings on record: for EC50: 72 h, read-out: EC50 dose of monotherapy. How it is done: (§1) In brief, HCT-116, MiaPaCa-2 and Panc-1 cells were thawed in high glucose DMEM (Sigma D5796) with 10% heat-inactivated Foetal Calf Serum (FCS) (PAA, A15-101)). Hep-G2 and SK-Hep1 cells were thawed in Minimum Essential Media (MEM) (Sigma M2279) with 1% non-essential amino acids (Sigma M7145), 2 mM Glutamine (Sigma G7513) and 10% FCS. SK-OV-3 cells were thawed in McCoy's 5A medium (Sigma, M8403) with 15% FCS. All cells were passaged by washing once in cation-free dPBS (Sigma, D1408), and incubated for 3 minutes with trypsin ([0.5 μg/ml]/EDTA [0.2 μg/ml] (Sigma, T4174) in dPBS). Passage was completed at 37° C., and cells were transferred to the appropriate media. Prior to seeding at defined cell density, cells were recovered in medium, centrifuged and resuspended for counting.
(§2) To prepare cells for viability assays, cells were transferred into 96 well tissue culture plates (Cultek), and resuspended in 100 µL at the following densities: 10,000 cells/well (Hep-G2 and MiaPaCa-2), 5000 cells/well (Panc-1 and SK-OV-3) or 3000 cells/well (HCT-116). Following 24 hours of incubation, media was removed and replaced with 100 µL media spiked with QTX125 and the test chemotherapeutic agents. Stock solutions for the agents used in this study are shown below in Table 1. Cells were incubated for a further 72 hours before cell viability was assessed using both ALAMAR® and hexosaminidase assays.
(§3) For the ALAMAR® blue assay, media containing QTX125 and the test chemotherapeutic agents was removed, and cells were stained using ALAMAR® blue (BioSource DAL 1100) for 4 hours at 37° C., following the manufacturer's instructions. Relative fluorescent intensity was measured using a Cytofluor® plate reader (Millipore) at 535/590 nm (Excitation/emission). This measure directly correlates with the number of viable cells present in each well.
(§4) A number of appropriate control samples were included. First, absorbance values measured in reagent ‘blank’ wells (containing cell culture medium and colorimetric agent only) were subtracted from ‘test’ sample-containing wells. ‘Blank’ absorbance values were routinely between 5 and 10% of the values recorded in test wells. Absorbance values recorded in test wells were then compared against wells containing (i) cells stimulated with QTX125 only; (ii) cells stimulated with sorafenib, gemcitabine or bortezomib only and/or (iii) unstimulated cells, as appropriate.
(§5) Control values were normalised to 100% and percentage (%) viability was calculated. Data were used to plot log dose-response curves using a sigmoid dose-response (variable slope) equation. EC50 values were obtained using Equation 1, where ‘X’ is the logarithmic concentration; ‘Y’ is the response output and it is assumed that Y starts at bottom of the graph and reaches the top with an overall sigmoid shape.
(§6) Prior to assessing the oncolytic efficacy of QTX125-containing combination therapies, the oncolytic effect of each test agent was assessed in isolation. Dose-response curves were produced by serial dilution (1:1), thereby allowing monotherapy EC50 values to be calculated.
(§7) Chemotherapeutic agents were added to wells at a starting concentration of 100 μM. However, it was quickly determined that it was not possible to use this range for all chemotherapeutic agents tested. An optimization study was therefore completed to identify suitable maximum (‘high’) doses for each agent and in each individual cell line.

For series [2], the system named is Hep-G2 hepatic cancer cells. The experiment in a line: Cell viability, ALAMAR blue assay, monotherapy. The settings on record: for percentage (%) cell viabilities: 72 hours of high-dose monotherapy (Table 2: QTX125 5, sorafenib 100, gemcitabine 100, bortezomib 1 μM); for EC50: HepG2, 72 h, read-out: EC50 dose of monotherapy. The protocol: as §1, §2, §3, §4, §5, §6, §7

In series [3] the test system is MiaPaCa-2 pancreatic cancer cells. Briefly: Cell viability, ALAMAR blue assay, monotherapy. The settings on record: for percentage (%) cell viabilities: 72 hours of high-dose monotherapy (Table 2: QTX125 100, sorafenib 100, gemcitabine 100, bortezomib 1 μM); for EC50: MIA PaCa-2, 72 h, 72 h, read-out: EC50 dose of monotherapy. How it is done:
as §1, §2, §3, §4, §5, §6, §7

Series [4] deals with Panc-1 pancreatic cancer cells. The experiment in a line: Cell viability, ALAMAR blue assay, monotherapy. The settings on record: for EC50: 72 h, read-out: EC50 dose of monotherapy. How it is done:
as §1, §2, §3, §4, §5, §6, §7
(Resazurin is reduced to fluorescent resorufin, in cell work by metabolically active cells.)

In series [5] the test system is SK-OV-3 ovarian cancer cells. The experiment in a line: Cell viability, ALAMAR blue assay, monotherapy. The settings on record: for EC50: 72 h, read-out: EC50 dose of monotherapy. The protocol: as §1, §2, §3, §4, §5, §6, §7
Series [6] deals with HCT-116 colonic cancer cells. Briefly: Cell viability, hexosaminidase assay, monotherapy. The settings on record: for EC50: read-out: EC50 dose of monotherapy. How it is done: as §1, §2
(§8) For the hexosaminidase assay, media containing QTX125 and the test chemotherapeutic agents was removed, and cells were washed once with PBS. 60 μL of substrate solution (containing: 7.5 mM p-nitrophenol-N-acetyl-beta-D-glucosamide [Sigma N-9376], 0.1 M sodium citrate, pH 5.0 and 0.25% Triton X-100) was added to each well and cells were incubated at 37° C. for at least 1 hour. Incubating cells in this manner causes the substrate solution to become bright yellow, at which point 90 μL of developer solution (containing 50 mM Glycine pH 10.4 and 5 mM EDTA) was added to each well. Absorbance at 410 nm was recorded using a plate reader.
as §4, §5, §6, §7

In series [7] the test system is Hep-G2 hepatic cancer cells. The experiment in a line: Cell viability, hexosaminidase assay, monotherapy. The settings on record: for percentage (%) cell viabilities: 72 hours of high-dose monotherapy (Table 2: QTX125 5, sorafenib 100, gemcitabine 100, bortezomib 1 μM); for EC50: HepG2, 72 h, read-out: EC50 dose of monotherapy. The protocol:
as §1, §2, §8, §4, §5, §6, §7

Series [8] relates to MiaPaCa-2 pancreatic cancer cells. The experiment in a line: Cell viability, hexosaminidase assay, monotherapy. The settings on record: for percentage (%) cell viabilities: 72 hours of high-dose monotherapy (Table 2: QTX125 100, sorafenib 100, gemcitabine 100, bortezomib 1 μM); for EC50: MIA PaCa-2, 72 h, read-out: EC50 dose of monotherapy. The protocol: as §1, §2, §8, §4, §5, §6, §7

In series [9] the test system is Panc-1 pancreatic cancer cells. Briefly: Cell viability, hexosaminidase assay, monotherapy. The settings on record: for EC50: read-out: EC50 dose of monotherapy. The protocol: as §1, §2, §8, §4, §5, §6, §7
For series [10], the system named is SK-OV-3 ovarian cancer cells. The experiment in a line: Cell viability, hexosaminidase assay, monotherapy. The settings on record: for EC50: read-out: EC50 dose of monotherapy. The protocol:
as §1, §2, §8, §4, §5, §6, §7

[11] abbreviates: 72 hours of high-dose monotherapy (Table 2: QTX125 1, sorafenib 100, gemcitabine 10, bortezomib 1 μM).
Where [12] appears, read: 72 hours of high-dose monotherapy (Table 2: QTX125 100, sorafenib 100, gemcitabine 100, bortezomib 1 μM).
Setting [13] is: 72 hours of high-dose monotherapy (Table 2: QTX125 10, sorafenib 100, gemcitabine 10, bortezomib 1 μM).
The mark [14] stands for this setting: high-dose monotherapy, 72 hours.
Setting [15] is: Homo sapiens, 72 hours of high-dose monotherapy (Table 2: QTX125 1, sorafenib 100, gemcitabine 10, bortezomib 1 μM), read-out: percentage (%) cell viabilities.
Setting [16] is: Homo sapiens, HepG2, 72 hours of high-dose monotherapy (Table 2: QTX125 5, sorafenib 100, gemcitabine 100, bortezomib 1 μM), read-out: percentage (%) cell viabilities.
The mark [17] stands for this setting: Homo sapiens, MIA PaCa-2, 72 hours of high-dose monotherapy (Table 2: QTX125 100, sorafenib 100, gemcitabine 100, bortezomib 1 μM), read-out: percentage (%) cell viabilities.
[18] abbreviates: Homo sapiens, 72 hours of high-dose monotherapy (Table 2: QTX125 100, sorafenib 100, gemcitabine 100, bortezomib 1 μM), read-out: percentage (%) cell viabilities.
Where [19] appears, read: Homo sapiens, 72 hours of high-dose monotherapy (Table 2: QTX125 10, sorafenib 100, gemcitabine 10, bortezomib 1 μM), read-out: percentage (%) cell viabilities.

The EC50 is the concentration that produces a half-maximal response. For the molecule `CNC(=O)c1cc(Oc2ccc(NC(=O)Nc3ccc(Cl)c(C(F)(F)F)c3)cc2)ccn1` [sorafenib], the “percentage (%) cell viabilities” value in [1] (setting [11]) came out at 0.0%; in series [2] it was 0.0%; in [3], 0.0%; in series [4] (setting [12]), 0.0%; in series [5] (setting [13]) it was 0.0%; in [6] (setting [11]) it was 2.4%. In addition, the “percentage (%) cell viabilities” value in series [7] was determined as 1.8%; in [8] it was 4.7%; in [9] (setting [12]), 4.4%; in series [10] (setting [13]), 2.3%. Moreover, the EC50 in [1] (Homo sapiens) turned out to be 4000 ± 600 nM; in series [2] (Homo sapiens), 620 ± 160 nM; in series [4] (Homo sapiens), 7200 ± 800 nM; in series [5] (Homo sapiens), 17000 ± 2800 nM; in series [6] (Homo sapiens, 72 h), 3600 ± 500 nM; in series [7] (Homo sapiens), 2700 nM. Besides, the EC50 in series [8] (Homo sapiens) is 6800 ± 900 nM; in series [9] (Homo sapiens, 72 h), 7400 ± 1000 nM; in [10] (Homo sapiens, 72 h), 12700 ± 1700 nM. Further, the “reduction of the population of viable cells” value (“reduction” for short) in [7] (setting [14]) is “more than 98%”.
As for `CC(C)C[C@H](NC(=O)[C@H](Cc1ccccc1)NC(=O)c1cnccn1)B(O)O` [bortezomib], the EC50 was found to be 7.9 ± 0.4 nM in series [1] (Homo sapiens); 16 ± 0.7 nM in series [2] (Homo sapiens); 13 ± 0.5 nM in series [3] (Homo sapiens); 6.2 nM in [4] (Homo sapiens); 7 ± 1 nM in series [5] (Homo sapiens); 6.6 ± 0.5 nM in series [6] (Homo sapiens, 72 h). Also, the EC50 in series [7] (Homo sapiens) was 16 ± 1 nM; in series [8] (Homo sapiens), 8.6 ± 0.5 nM; in series [9] (Homo sapiens, 72 h), 9.3 ± 0.8 nM; in series [10] (Homo sapiens, 72 h), 6.8 ± 0.4 nM. Further, the viability at 1 µM amounted to 0% in [1] (setting [15]); 0% in [2] (setting [16]); 0% in [3] (setting [17]); 0% in [4] (setting [18]); 0% in series [5] (setting [19]); 4.9% in series [6] (setting [15]). Further, the viability at 1 µM in series [7] (setting [16]) amounted to 8.8%; in series [8] (setting [17]), 4.1%; in series [9] (setting [18]), 3%; in series [10] (setting [19]), 9.3%. Further, the “reduction” value in series [9] (setting [14]) is 97%.
Take `Nc1ccn([C@@H]2O[C@H](CO)[C@@H](O)C2(F)F)c(=O)n1` [gemcitabine]: the “percentage (%) cell viabilities” value in series [1] (setting [11]) is listed as 1.9%; in series [2] it was 24%; in [3] it was 24%; in series [4] (setting [12]), 8.5%; in series [5] (setting [13]), 38%; in series [6] (setting [11]), 20%. Moreover, the “percentage (%) cell viabilities” value in series [7] is reported as 54%; in series [8] it was 47%; in [9] (setting [12]), 62%; in [10] (setting [13]), 50%. Also, the “reduction” value in series [1] (setting [14]) was “more than 98%”. In addition, the EC50 in series [3] (Homo sapiens) was 26 nM; in series [8] (Homo sapiens), 33 nM. For the same molecule, the “EC50 dose of monotherapy” value in series [6] (72 h), in [7] (72 h), in [9] (72 h) and in [10] (72 h) was “resistant” throughout.
